For assay [1], the target named is Substance-P receptor (Homo sapiens, UniProt P25103). The experiment in a line: Compound was tested for its binding affinity to NK1 receptor in [3H]SP binding assay on human IM9 lymphoblasts cultured cell line.
The target of assay [2] is Substance-P receptor (Rattus norvegicus, UniProt P14600). Put plainly: Compound was tested for its binding affinity to NK1 receptor in [3H]SP binding assay on rat brain membranes.
Assay [3] relates to Rattus norvegicus. Put plainly: Compound was administered intravenously and evaluated in vivo for its inhibition of SP-induced plasma extravasation in rat. The format is functional. Conditions: iv.
The test system of assay [4] is Rattus norvegicus. The experiment in a line: Compound was administered perorally and evaluated in vivo for its inhibition of SP-induced plasma extravasation in rat. Particulars: po. The format is functional.
The test system of assay [5] is Rattus norvegicus. The experiment in a line: Compound was administered orally and evaluated in vivo for its inhibition of SP-induced plasma extravasation in rat. Format: functional. Conditions: po.

The structures appear in SMILES notation.

One may read the IC50 as the concentration at which inhibition is half-maximal. A low value points to higher potency. In general, ED50 refers to the dose at which the effect has come halfway, by size or by number of responders. A lower ED50 goes with greater potency.

Substance-P receptor (Homo sapiens, UniProt P25103), sequence (P25103 whole entry): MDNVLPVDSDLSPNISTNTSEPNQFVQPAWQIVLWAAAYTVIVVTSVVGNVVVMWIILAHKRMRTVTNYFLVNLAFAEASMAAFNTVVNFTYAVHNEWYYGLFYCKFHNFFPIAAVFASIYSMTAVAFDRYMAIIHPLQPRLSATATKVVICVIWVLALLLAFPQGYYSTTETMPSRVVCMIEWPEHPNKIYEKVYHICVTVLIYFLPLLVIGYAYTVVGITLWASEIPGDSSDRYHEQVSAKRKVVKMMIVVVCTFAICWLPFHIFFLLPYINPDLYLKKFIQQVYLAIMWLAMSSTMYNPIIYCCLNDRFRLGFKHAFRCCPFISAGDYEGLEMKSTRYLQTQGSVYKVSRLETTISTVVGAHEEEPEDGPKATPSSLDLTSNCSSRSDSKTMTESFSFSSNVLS
Substance-P receptor (Rattus norvegicus, UniProt P14600), sequence (P14600 whole entry): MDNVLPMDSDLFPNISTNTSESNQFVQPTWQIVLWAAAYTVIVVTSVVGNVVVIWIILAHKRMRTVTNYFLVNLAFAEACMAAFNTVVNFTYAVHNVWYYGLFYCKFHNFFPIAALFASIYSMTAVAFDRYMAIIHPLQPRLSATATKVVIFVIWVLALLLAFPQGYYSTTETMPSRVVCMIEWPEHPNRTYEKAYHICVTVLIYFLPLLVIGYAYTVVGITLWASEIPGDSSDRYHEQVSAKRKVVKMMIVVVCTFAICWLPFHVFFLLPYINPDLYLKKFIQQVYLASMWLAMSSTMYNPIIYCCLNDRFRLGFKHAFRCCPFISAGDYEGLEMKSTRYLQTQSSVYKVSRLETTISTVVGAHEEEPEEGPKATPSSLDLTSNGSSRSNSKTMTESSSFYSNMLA

With `COc1ccccc1[C@H](SC)C(=O)N1CC2C(=O)CSC(c3ccccc3)(c3ccccc3)C2C1` (stereo partly specified), the IC50 came out at 15 nM in assay [1] and 5 nM in assay [2]. Also, the ED50 in assay [3] amounted to 0.1 mg/kg; in assay [4], 0.8 mg/kg.

Consider `CN(C)c1ccccc1CC(=O)N1CC2C(=O)CSC(c3ccccc3)(c3ccccc3)C2C1` (stereo unspecified), for which the figures for the concentration for half-maximal inhibition (IC50) in assay [1] and in assay [2] were 83 nM and 41 nM, respectively.

Take `COc1ccccc1CC(=N)N1C[C@@H]2C(=O)CCC(c3ccccc3)(c3ccccc3)[C@@H]2C1`: the IC50 in assay [1] came to 49 nM; in assay [2], 8 nM.

As for `CN(C)CCCOc1ccccc1CC(=O)N1CC2C(=O)CSC(c3ccccc3)(c3ccccc3)C2C1` (stereo unspecified), the results for the IC50 in assay [1] and in assay [2] were 51 nM and 26 nM, respectively.

On to `COc1ccccc1[C@H](C)C(=O)N1C[C@@H]2[C@H](C1)[C@@](O)(c1ccccc1OC)CSC2(c1ccccc1)c1ccccc1`, for which the 50% inhibitory concentration (IC50) came out at 38 nM in assay [1] and 3000 nM in assay [2].

In assay [2], `CN(C)c1ccccc1CC(=O)N1C[C@@H]2C(=O)C[S+]([O-])C(c3ccccc3)(c3ccccc3)[C@@H]2C1` (stereo partly specified) had an IC50 of 470 nM.

Take `CN(C)c1ccccc1CC(=O)N1C[C@H]2[C@@H](C1)C(c1ccccc1)(c1ccccc1)SC[C@@H]2O`: the IC50 in assay [1] is 370 nM; in assay [2], 77 nM.

For the molecule `COc1ccccc1[C@H](C)C(=O)N1C[C@@H]2[C@H](C1)C(c1ccccc1)(c1ccccc1)CC[C@@]2(O)c1ccccc1OC` [DAPITANT], the values for the IC50 in assay [1] and in assay [2] were 13 nM and 1400 nM, respectively.

Regarding `COc1ccccc1CC(=N)N1CC2C(=O)CSC(c3ccccc3)(c3ccccc3)C2C1` (stereo unspecified), the concentration for half-maximal inhibition (IC50) worked out at 9 nM in assay [1] and 2 nM in assay [2]. In addition, the ED50 in assay [5] is above 10 mg/kg; in assay [3], below 1 mg/kg.

The values are drawn from ChEMBL document CHEMBL1128654, “4,4-Diphenyl-7-perhydrothiapyrano[3,4-c]pyrrolone, a new series of substance P receptors antagonists” (Bioorg Med Chem Lett, 1995).
